Measured values: patent US20120149718A1, “Amido Compounds” (priority 2010, published 2012)

What was measured:
human P2X7 = molecular target: T1, human P2X7 (Homo sapiens, UniProt Q99572); assay: Intracellular Calcium Flux (FLIPR) Assay; type: cell-based; settings: 1321N1 cells stably expressing full length human P2X7; agonist 100 μM BzATP; fluo-3 calcium flux; read-out: FLIPR pIC50 hP2X7-1321n1 (converted)
T1 construct: 1321N1 cells stably expressing the full length human P2X7 gene (1321N1-hP2X7)
T1 sequence (Q99572 1-595): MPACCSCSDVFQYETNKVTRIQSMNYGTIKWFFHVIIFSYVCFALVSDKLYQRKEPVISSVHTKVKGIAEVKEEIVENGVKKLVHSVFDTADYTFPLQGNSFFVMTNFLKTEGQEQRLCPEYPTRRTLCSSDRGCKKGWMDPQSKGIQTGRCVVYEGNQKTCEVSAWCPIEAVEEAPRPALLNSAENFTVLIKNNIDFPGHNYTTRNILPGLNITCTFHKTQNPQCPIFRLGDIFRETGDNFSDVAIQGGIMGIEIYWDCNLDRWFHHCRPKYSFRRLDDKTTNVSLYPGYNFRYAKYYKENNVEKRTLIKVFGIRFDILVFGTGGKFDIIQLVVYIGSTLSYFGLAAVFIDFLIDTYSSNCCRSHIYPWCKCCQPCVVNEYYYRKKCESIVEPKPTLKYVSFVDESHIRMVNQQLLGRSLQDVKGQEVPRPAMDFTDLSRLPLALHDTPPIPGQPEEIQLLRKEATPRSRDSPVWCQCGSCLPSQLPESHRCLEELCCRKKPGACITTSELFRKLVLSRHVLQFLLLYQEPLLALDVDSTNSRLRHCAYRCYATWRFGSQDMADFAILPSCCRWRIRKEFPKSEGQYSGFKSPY
Method: Stock solutions of compounds were prepared from powders as a 10 mM DMSO stock solution. These solutions were stored at RT during the two week period of these experiments to prevent freeze-thaw of the DMSO stocks. The DMSO stocks were added to the appropriate assay buffer at a concentration of 10 μM, and then diluted serially to the final concentrations that were tested. No observable precipitate was formed at any time during this process. The aqueous solutions of compounds as well as ATP (Sigma A7699) and BzATP (Sigma B6396) were prepared fresh for each day of experiment.
1321N1 cells stably expressing the full length human P2X7 gene (1321N1-hP2X7) and HEK293 cells stably expressing the full length rat P2X7 gene (HEK293-rP2X7) were obtained from the Roche Cell Culture Facility. 1321N1-hP2X7 cells were grown in Dulbecco's Modified Eagle's Medium (DMEM) high glucose supplemented with 10% FBS and 250 μg/mL G418. HEK293-rP2X7 cells were grown in DMEM/F-12 supplemented with 10% FBS, 1 mM CaCl2, 2 mM MgCl2, 2 mM L-Glutamine and 500 μg/ml G418. Cells were split such that they never became >70% confluent.
On the day prior to the experiment, 1321N1-hP2X7 or HEK293-rP2X7 cells were released into suspension with calcium-free PBS+Versene and washed by centrifugation with calcium-free PBS to remove the Versene. Cells were resuspended in growth medium at a density of 2.5×10^5 cells/mL and seeded into black walled, clear bottom 96 well plates (50,000 cells/well) approximately 18 hr prior to intracellular calcium flux experiments.
On the day of the experiment, plates were washed with FLIPR buffer (calcium- and magnesium-free Hank's Balanced Salt Solution (HBSS) supplemented with 10 mM Hepes, 2.5 mM probenecid and 2 mM calcium chloride) using a BIO-TEK 96 channel plate washer and incubated with […] fluo-3 dye at 37° C. for one hr. The dye was then removed by plate washing and the cells were allowed to equilibrate for 20 min at room temperature with antagonist or vehicle (FLIPR buffer). Agonist (100 μM BzATP final concentration for hP2X7; 5 μM BzATP final concentration or rP2X7) was added online with the FLIPR and fluorescence measurements made at 1 sec intervals for 60 sec followed by 3 sec intervals for a further 4 min (5 min total). A final addition of 5 μM ionomycin was made and the maximal BzATP-evoked fluorescence normalized to the maximal ionomycin-evoked fluorescence.

| SMILES | IC50 (human P2X7) [nM] | melting point [°C] |
| --- | --- | --- |
| Cc1ccccc1CC(C(=O)Nc1cnc(Br)cn1)c1ccc(S(C)(=O)=O)cc1 (centres unmarked) [Compound I-1, N-(5-Bromo-pyrazin-2-yl)-2-(4-methanesulfonyl-phenyl)-3-o-tolyl-propionamide] | 389 | 193.5 to 194.8 |
| Cc1ccccc1CC(C(=O)Nc1nc2ccccc2o1)c1ccc(S(C)(=O)=O)cc1 (centres unmarked) [Compound I-2, N-Benzooxazol-2-yl-2-(4-methanesulfonyl-phenyl)-3-o-tolyl-propionamide] | 302 | 105.7 to 108.9 |
| Cc1ccccc1CC(C(=O)Nc1nc2cc(Cl)ccc2o1)c1ccc(S(C)(=O)=O)cc1 (centres unmarked) [Compound I-3, N-(5-Chloro-benzooxazol-2-yl)-2-(4-methanesulfonyl-phenyl)-3-o-tolyl-propionamide] | 1170 | 184 to 185 |
| CS(=O)(=O)c1ccc(C(Cc2ccccc2)C(=O)Nc2nc3ccccc3o2)cc1 (centres unmarked) [Compound I-4, N-Benzooxazol-2-yl-2-(4-methanesulfonyl-phenyl)-3-phenyl-propionamide] | 81.3 | 118 to 119 |
| CS(=O)(=O)c1ccc(C(Cc2ccccc2Cl)C(=O)Nc2nc3ccccc3o2)cc1 (centres unmarked) [Compound I-5, N-Benzooxazol-2-yl-3-(2-chloro-phenyl)-2-(4-methanesulfonyl-phenyl)-propionamide] | 537 | 107 to 108 |
| CS(=O)(=O)c1ccc(C(Cc2ccc(F)cc2Cl)C(=O)Nc2nc3ccccc3o2)cc1 (centres unmarked) [Compound I-6, N-Benzooxazol-2-yl-3-(2-chloro-4-fluoro-phenyl)-2-(4-methanesulfonyl-phenyl)-propionamide] | 794 | 127 to 128 |
| CS(=O)(=O)c1ccc(C(Cc2ccc(F)cc2)C(=O)Nc2nc3ccccc3o2)cc1 (centres unmarked) [Compound I-7, N-Benzooxazol-2-yl-3-(4-fluoro-phenyl)-2-(4-methanesulfonyl-phenyl)-propionamide] | 63.1 | 109 to 110 |
| CS(=O)(=O)c1ccc(C(Cc2ccccc2F)C(=O)Nc2nc3ccccc3o2)cc1 (centres unmarked) [Compound I-8, N-Benzooxazol-2-yl-3-(2-fluoro-phenyl)-2-(4-methanesulfonyl-phenyl)-propionamide] | 87.1 | 99 to 100 |
| COc1ccc(CC(C(=O)Nc2nc3ccccc3o2)c2ccc(S(C)(=O)=O)cc2)cc1 (centres unmarked) [Compound I-9, N-Benzooxazol-2-yl-2-(4-methanesulfonyl-phenyl)-3-(4-methoxy-phenyl)-propionamide] | 229 | 101.9 to 105.9 |
| CS(=O)(=O)c1cccc(C(Cc2ccc(F)cc2)C(=O)Nc2nc3ccccc3o2)c1 (centres unmarked) [Compound I-12, N-Benzooxazol-2-yl-3-(4-fluoro-phenyl)-2-(3-methanesulfonyl-phenyl)-propionamide] | 741 | 99 to 100 |
| CSc1cnc(NC(=O)C(Cc2ccc(F)cc2)c2ccc(S(C)(=O)=O)cc2)cn1 (centres unmarked) [Compound I-14, 3-(4-Fluoro-phenyl)-2-(4-methanesulfonyl-phenyl)-N-(5-methylsulfanyl-pyrazin-2-yl)-propionamide] | 1120 | 187.7 to 188.4 |
| CCOC(=O)c1cnc(NC(=O)C(Cc2ccc(F)cc2)c2ccc(S(C)(=O)=O)cc2)cn1 (centres unmarked) [Compound I-15, 5-[3-(4-Fluoro-phenyl)-2-(4-methanesulfonyl-phenyl)-propionylamino]-pyrazine-2-carboxylic acid ethyl ester] | 224 | 106 to 107 |
| CS(=O)(=O)c1ccc(C(Cc2ccc(F)cc2)C(=O)Nc2nc3ncccc3o2)cc1 (centres unmarked) [Compound I-18, 3-(4-Fluoro-phenyl)-2-(4-methanesulfonyl-phenyl)-N-oxazolo[4,5-b]pyridin-2-yl-propionamide] | 234 | 261 to 263.7 |
| Cc1cnc(NC(=O)C(Cc2ccc(F)cc2)c2ccc(S(C)(=O)=O)cc2)cn1 (centres unmarked) [Compound I-19, 3-(4-Fluoro-phenyl)-2-(4-methanesulfonyl-phenyl)-N-(5-methyl-pyrazin-2-yl)-propionamide] | 708 | 172.4 to 175.3 |
| CS(=O)(=O)c1ccc(C(Cc2ccc(F)cc2)C(=O)Nc2nc3ccc(CO)cc3o2)cc1 (centres unmarked) [Compound I-20, 3-(4-Fluoro-phenyl)-N-(6-hydroxymethyl-benzooxazol-2-yl)-2-(4-methanesulfonyl-phenyl)-propionamide] | 20.4 | 128 to 130 |
| COCc1cnc(NC(=O)C(Cc2ccc(F)cc2)c2ccc(S(C)(=O)=O)cc2)cn1 (centres unmarked) [Compound I-21, 3-(4-Fluoro-phenyl)-2-(4-methanesulfonyl-phenyl)-N-(5-methoxymethyl-pyrazin-2-yl)-propionamide] | 646 | 69 to 82.3 |
| CCOCc1cnc(NC(=O)C(Cc2ccc(F)cc2)c2ccc(S(C)(=O)=O)cc2)cn1 (centres unmarked) [Compound I-22, N-(5-Ethoxymethyl-pyrazin-2-yl)-3-(4-fluoro-phenyl)-2-(4-methanesulfonyl-phenyl)-propionamide] | 741 | 99 to 100 |
| CS(=O)(=O)c1ccc(C(Cc2ccc(F)cc2)C(=O)Nc2cncc(Cl)n2)cc1 (centres unmarked) [Compound I-25, N-(6-Chloro-pyrazin-2-yl)-3-(4-fluoro-phenyl)-2-(4-methanesulfonyl-phenyl)-propionamide] | 851 | 191.6 to 192.7 |
| CS(=O)(=O)c1ccc(C(Cc2cccc(F)c2)C(=O)Nc2cnc(CO)cn2)cc1 (centres unmarked) [Compound I-26, 3-(3-Fluoro-phenyl)-N-(5-hydroxymethyl-pyrazin-2-yl)-2-(4-methanesulfonyl-phenyl)-propionamide] | 339 | 82.8 to 98.7 |
| O=C(Nc1nc2ccccc2o1)C(Cc1ccc(F)cc1)c1ccc(F)cc1F (centres unmarked) [Compound I-29, N-Benzooxazol-2-yl-2-(2,4-difluoro-phenyl)-3-(4-fluoro-phenyl)-propionamide] | 501 | 177.5 to 177.9 |
| CCOC(=O)c1ccc(C(Cc2ccc(F)cc2)C(=O)Nc2nc3ccccc3o2)cc1 (centres unmarked) [Compound I-30, 4-[1-(Benzooxazol-2-ylcarbamoyl)-2-(4-fluoro-phenyl)-ethyl]-benzoic acid ethyl ester] | 457 | 122 to 125 |
| CS(=O)(=O)c1ccc(C(Cc2ccc(F)cc2)C(=O)Nc2nc3cnccc3o2)cc1 (centres unmarked) [Compound I-51, 3-(4-Fluoro-phenyl)-2-(4-methanesulfonyl-phenyl)-N-oxazolo[4,5-c]pyridin-2-yl-propionamide] | 31.6 |  |
| CS(=O)(=O)c1ccc(C(Cc2ccc(F)cc2)C(=O)Nc2nc3ccncc3o2)cc1 (centres unmarked) [Compound I-52, 3-(4-Fluoro-phenyl)-2-(4-methanesulfonyl-phenyl)-N-oxazolo[5,4-c]pyridin-2-yl-propionamide] | 66.1 |  |
| CS(=O)(=O)c1ccc(CC(C(=O)Nc2nc3ccccc3o2)c2ccc(F)cc2)cc1 (centres unmarked) [Compound I-53, N-Benzooxazol-2-yl-2-(4-fluoro-phenyl)-3-(4-methanesulfonyl-phenyl)-propionamide] | 407 |  |
| O=C(Nc1nc2ccccc2o1)C(Cc1ccc(F)cc1)c1ccncc1 (centres unmarked) [Compound I-54, N-Benzooxazol-2-yl-3-(4-fluoro-phenyl)-2-pyridin-4-yl-propionamide] | 30.9 |  |
| CS(=O)(=O)c1ccc(C(Cc2ccncc2)C(=O)Nc2nc3ccccc3o2)cc1 (centres unmarked) [Compound I-55, N-Benzooxazol-2-yl-2-(4-methanesulfonyl-phenyl)-3-pyridin-4-yl-propionamide] | 661 |  |
